# Measurements: US20240082212A1, “USE OF MDMA FOR TREATMENT OF STRESS-RELATED DISORDERS” (priority 2022, published 2024)
# Entries after “also recorded” stand apart in the source; their conditions may differ.
# Experiments:
# Serotonin 5-HT2C = biological target: T1, Serotonin 5-HT2C (Homo sapiens, UniProt P28335); assay: biochemical; format: binding; details: 10 µM
# T1 sequence (P28335 33-458): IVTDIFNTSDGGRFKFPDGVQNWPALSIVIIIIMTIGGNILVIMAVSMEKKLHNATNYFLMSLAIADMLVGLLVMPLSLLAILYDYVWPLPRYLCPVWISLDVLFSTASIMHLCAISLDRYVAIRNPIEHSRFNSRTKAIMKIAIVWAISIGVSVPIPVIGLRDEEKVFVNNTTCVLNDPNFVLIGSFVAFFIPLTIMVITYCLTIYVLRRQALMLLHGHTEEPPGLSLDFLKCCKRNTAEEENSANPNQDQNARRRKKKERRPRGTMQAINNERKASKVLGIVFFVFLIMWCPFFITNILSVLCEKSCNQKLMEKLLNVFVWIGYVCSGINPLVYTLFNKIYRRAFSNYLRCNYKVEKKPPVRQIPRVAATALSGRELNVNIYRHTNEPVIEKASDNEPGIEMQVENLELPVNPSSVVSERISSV
# Serotonin 5-HT2A = Serotonin 5-HT2A (Homo sapiens, UniProt P28223); assay: Eurofins Panlabs radioligand binding panel, serotonin 5-HT2A; details: 10 uM
# Serotonin 5-HT2A, sequence (P28223 whole entry): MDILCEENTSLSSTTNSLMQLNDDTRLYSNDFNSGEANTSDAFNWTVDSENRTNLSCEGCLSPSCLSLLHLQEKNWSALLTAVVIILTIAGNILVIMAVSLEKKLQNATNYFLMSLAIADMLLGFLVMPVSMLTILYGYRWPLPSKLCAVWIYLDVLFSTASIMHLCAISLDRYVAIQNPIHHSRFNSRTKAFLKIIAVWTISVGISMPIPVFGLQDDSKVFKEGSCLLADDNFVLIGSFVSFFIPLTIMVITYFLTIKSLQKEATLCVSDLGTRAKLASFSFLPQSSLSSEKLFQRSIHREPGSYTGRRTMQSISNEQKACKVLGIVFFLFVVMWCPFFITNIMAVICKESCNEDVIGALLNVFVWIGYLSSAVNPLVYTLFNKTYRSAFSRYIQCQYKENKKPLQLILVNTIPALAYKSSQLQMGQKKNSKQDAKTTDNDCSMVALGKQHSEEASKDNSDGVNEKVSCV
# [1] = biological target: Nicotinic acetylcholine α3β4 (Homo sapiens, UniProt P30926+P32297); assay: Eurofins Panlabs radioligand binding panel, nicotinic acetylcholine α3β4; details: 10 uM
# Nicotinic acetylcholine α3β4, sequence (P32297 32-505): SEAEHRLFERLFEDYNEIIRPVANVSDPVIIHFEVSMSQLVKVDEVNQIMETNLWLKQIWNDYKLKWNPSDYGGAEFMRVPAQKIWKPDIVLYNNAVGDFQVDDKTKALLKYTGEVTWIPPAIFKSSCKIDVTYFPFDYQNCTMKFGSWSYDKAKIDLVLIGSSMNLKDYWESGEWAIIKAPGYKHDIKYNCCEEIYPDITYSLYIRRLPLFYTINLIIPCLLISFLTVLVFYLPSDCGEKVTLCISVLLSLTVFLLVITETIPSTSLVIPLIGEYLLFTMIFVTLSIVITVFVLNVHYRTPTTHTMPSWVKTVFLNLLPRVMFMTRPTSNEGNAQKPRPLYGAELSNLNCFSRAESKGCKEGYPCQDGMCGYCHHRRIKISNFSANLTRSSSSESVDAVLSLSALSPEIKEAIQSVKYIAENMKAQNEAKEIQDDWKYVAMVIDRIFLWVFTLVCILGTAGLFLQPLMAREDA
# Nicotinic acetylcholine α3β4, sequence (P30926 22-498): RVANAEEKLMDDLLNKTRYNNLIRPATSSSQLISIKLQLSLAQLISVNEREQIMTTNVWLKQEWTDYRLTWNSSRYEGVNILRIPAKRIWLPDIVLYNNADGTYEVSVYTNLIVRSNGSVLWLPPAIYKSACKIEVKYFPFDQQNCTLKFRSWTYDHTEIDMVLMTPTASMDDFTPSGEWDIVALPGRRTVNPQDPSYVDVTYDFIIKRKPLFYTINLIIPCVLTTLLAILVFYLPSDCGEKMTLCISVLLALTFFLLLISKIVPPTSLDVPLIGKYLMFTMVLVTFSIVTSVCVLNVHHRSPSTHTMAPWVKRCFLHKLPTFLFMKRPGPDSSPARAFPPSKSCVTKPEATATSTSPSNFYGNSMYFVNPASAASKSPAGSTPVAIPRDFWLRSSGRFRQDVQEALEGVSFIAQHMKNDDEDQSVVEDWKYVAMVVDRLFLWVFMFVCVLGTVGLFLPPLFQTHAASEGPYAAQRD
# CD (Sprague Dawley) rats = assay: Rat functional observation battery (FOB) neurobehavioral evaluation after cumulative SC dosing; format: in vivo
# Protocol: The observations were assessed through a rat functional observation battery (FOB) and continuous physiological measurements on the day of cumulative dosing, which are provided in further detail below.
# Methods. A total of 42 adult male CD® (Sprague Dawley) rats (Charles River Laboratories) were surgically implanted with DSI radiotelemetry devices by personnel at Charles River Laboratories Raleigh, NC, per their test site SOPs. Telemetry devices supported continuous recording of temperature, activity, blood pressure and heart rate. Telemeterized rats were shipped to the Charles River Laboratories testing facility (Mattawan, MI) and acclimated to the environment for at least 1 week prior to experimentation. Animals were pair-housed in solid bottom cages with nonaromatic bedding. On the dosing day, animals were singly housed and then returned to the paired cohort following the dosing/telemetry recording phase. Diet (Lab Diet® Certified Rodent Diet #5CR4) and tap water via an automatic water system were available ad libitum, except during designated procedures. Temperature and humidity were maintained according to the Testing Facility SOP. Animals were randomized into treatment groups using a standard, by weight, measured value randomization procedure. Body weight was determined for each rat prior to dosing.
# As illustrated in the Table, a total of 36 rats were included in the study. The vehicle and 2 test article doses were administered in a volume of 1 mL/kg to each of 3 groups of n=12 telemeterized rats via subcutaneous injection four times on a given day, followed by neurobehavioral evaluations. This series was repeated 3 times on study. Each group received all 3 dose levels of the applicable test or control article in ascending order with a 1-week washout between dose levels.
# Mortality/cage side clinical observations were conducted for all study animals at least twice daily beginning upon receipt through termination, except on days of receipt and termination where frequency was at least once daily. Detailed clinical observations were conducted for all study animals prior to each of the four cumulative doses in a series. Individual body weights were conducted for all study animals at transfer, prior to randomization, on the day of dosing on each of the 3 cycles of dosing. The body weights recorded at transfer and prior to randomization are not reported but are maintained in the study file. Veterinary care was available throughout the course of the study, and animals were examined by the veterinary staff as needed based on clinical signs or other changes. All animals were provided with HydroGel the night prior to their respective dosing days to potentially mitigate any animal welfare issues related to fluid loss/dehydration.
# Neurobehavioral evaluations (blinded) were conducted for all study animals 1 hour following the last (4th) cumulative dose of the series. The neurobehavioral parameters evaluated included: activity measurements (arousal/alertness, posture/body carriage, stereotypy, rearing, and appearance), autonomic measurements (exophthalmus, lacrimation, erected fur, pupil response, salivation, defecation, and palpebral closure/ptosis), excitability measurements (vocalizations, startle response, ease of removal, handling reactivity, and convulsions), neuromuscular measurements (gait/mobility, grip strength/response, air righting reflex, tremor, and body tone), physiological measurements (respiration and body temperature), and sensorimotor measurements (touch response/tactile reflex and thermal response).
# [2] = 1 h after last of 4 hourly SC injections, R-MDMA and racemic MDMA 10, 20 mg/kg/day, S-MDMA 5, 10 mg/kg/day
# [3] = 1 h after last of 4 hourly SC injections, racemic MDMA 10, 20 mg/kg/day, S-MDMA 5, 10 mg/kg/day
# [4] = FOB, cumulative SC dosing, dose groups stated in the value, listed as Rac-MDMA
# [5] = FOB, cumulative SC dosing, dose groups stated in the value, listed as Rac.-MDMA
structure (smiles),measurement,setting,value
"CNC(C)Cc1ccc2c(c1)OCO2 (racemic) [Racemic MDMA, 3,4-methylenedioxymethamphetamine]",% inhibition of binding or activity,Serotonin 5-HT2C,87%
same,% inhibition of binding or activity,Serotonin 5-HT2A,59%
same,% inhibition of binding or activity,[1],66%
same,arousal/alertness and rearing,CD (Sprague Dawley) rats; [2],general increase in overall levels of arousal/alertness and rearing
same,ease of removal from the home cage and handling reactivity (excitability),CD (Sprague Dawley) rats; [2],Dose-dependent increased difficulty in removal from the home cage and increased handling reactivity
same,forelimb grip strength,CD (Sprague Dawley) rats; [2],dose-dependent statistically significant decreases in forelimb grip strength
same,salivation and erected fur (autonomic),CD (Sprague Dawley) rats; [2],Dose-dependent increased salivation and erected fur
same,unkempt appearance,CD (Sprague Dawley) rats; [2],increased incidence of unkempt appearance in a dose-dependent manner
same,general gait/mobility changes,CD (Sprague Dawley) rats; [3],General gait/mobility changes were only observed
same,respiration,CD (Sprague Dawley) rats; [3],Rapid respiration was noted
same,Rank Order Activity Measurement Effects,CD (Sprague Dawley) rats; [4],Rac-MDMA (0 mg/kg/day) < Rac-MDMA (20 mg/kg/day) < Rac-MDMA (10 mg/kg/day); also recorded: S-MDMA (10 mg/kg/day) = R-MDMA (10 mg/kg/day) = Rac-MDMA (10 mg/kg/day)
same,Rank Order Autonomic Measurement Effects,CD (Sprague Dawley) rats; [4],R-MDMA (20 mg/kg/day) < S-MDMA (10 mg/kg/day) < Rac-MDMA (20 mg/kg/day); also recorded: Rac-MDMA (0 mg/kg/day) < Rac-MDMA (10 mg/kg/day) < Rac-MDMA (20 mg/kg/day); also recorded: R-MDMA (10 mg/kg/day) < S-MDMA (10 mg/kg/day) = Rac-MDMA (20 mg/kg/day)
same,Rank Order Excitability Measurement Effects,CD (Sprague Dawley) rats; [4],S-MDMA (5 mg/kg/day) < Rac-MDMA (10 mg/kg/day); also recorded: R-MDMA (20 mg/kg/day) = S-MDMA (10 mg/kg/day) < Rac-MDMA (20 mg/kg/day); also recorded: Rac-MDMA (0 mg/kg/day) < Rac-MDMA (10 mg/kg/day) < Rac-MDMA (20 mg/kg/day); also recorded: R-MDMA (10 mg/kg/day) < S-MDMA (10 mg/kg/day) < Rac-MDMA (20 mg/kg/day)
same,Rank Order Neuromuscular Measurement Effects,CD (Sprague Dawley) rats; [4],R-MDMA (20 mg/kg/day) = S-MDMA (10 mg/kg/day) < Rac-MDMA (20 mg/kg/day); also recorded: Rac-MDMA (0 mg/kg/day) < Rac-MDMA (10 mg/kg/day) < Rac-MDMA (20 mg/kg/day); also recorded: R-MDMA (10 mg/kg/day) < S-MDMA (10 mg/kg/day) < Rac-MDMA (20 mg/kg/day)
same,Rank Order Physiological Measurement Effects,CD (Sprague Dawley) rats; [4],R-MDMA (20 mg/kg/day) < S-MDMA (10 mg/kg/day) = Rac-MDMA (20 mg/kg/day); also recorded: Rac-MDMA (0 mg/kg/day) < Rac-MDMA (10 mg/kg/day) < Rac-MDMA (20 mg/kg/day); also recorded: R-MDMA (10 mg/kg/day) < S-MDMA (10 mg/kg/day) = Rac-MDMA (20 mg/kg/day)
same,Rank Order Sensorimotor Measurement Effects,CD (Sprague Dawley) rats; [4],S-MDMA (5 mg/kg/day) < Rac-MDMA (10 mg/kg/day) < R-MDMA (10 mg/kg/day); also recorded: S-MDMA (10 mg/kg/day) < Rac-MDMA (20 mg/kg/day) < R-MDMA (20 mg/kg/day); also recorded: Rac-MDMA (0 mg/kg/day) < Rac-MDMA (10 mg/kg/day) < Rac-MDMA (20 mg/kg/day)
same,Rank Order Activity Measurement Effects,CD (Sprague Dawley) rats; [5],S-MDMA (5 mg/kg/day) < R-MDMA (10 mg/kg/day) < Rac.-MDMA (10 mg/kg/day); also recorded: Rac.-MDMA (20 mg/kg/day) < S-MDMA (10 mg/kg/day) < R-MDMA (20 mg/kg/day); also recorded: Rac.-MDMA (20 mg/kg/day) < S-MDMA (10 mg/kg/day) < R-MDMA (10 mg/kg/day)
same,Rank Order Autonomic Measurement Effects,CD (Sprague Dawley) rats; [5],R-MDMA (10 mg/kg/day) < S-MDMA (5 mg/kg/day) < Rac.-MDMA (10 mg/kg/day)
same,Rank Order Excitability Measurement Effects,CD (Sprague Dawley) rats; [5],R-MDMA (10 mg/kg/day) < S-MDMA (5 mg/kg/day) < Rac.-MDMA (10 mg/kg/day)
same,Rank Order Neuromuscular Measurement Effects,CD (Sprague Dawley) rats; [5],R-MDMA (10 mg/kg/day) < S-MDMA (5 mg/kg/day) < Rac.-MDMA (10 mg/kg/day)
same,Rank Order Physiological Measurement Effects,CD (Sprague Dawley) rats; [5],R-MDMA (10 mg/kg/day) < S-MDMA (5 mg/kg/day) < Rac.-MDMA (10 mg/kg/day)
same,thermal response times,"CD (Sprague Dawley) rats; at levels at least two-fold that of vehicle-treated groups, 1 h after last of 4 hourly SC injections",Statistically significant increases in thermal response times
same,neuromuscular observations,CD (Sprague Dawley) rats; primarily noted at 20 mg/kg/day racemic-MDMA (4 hourly SC injections),"observations of ataxia, hunched posture, and tip-toe walking"
